# Legend:
# Assay type in all cases: biochemical
# SIK1 = SIK1 (Homo sapiens, UniProt P57059); test: Enzymatic activity assay SIK1, RapidFire mass spectrometry (phosphorylation of CHK-peptide); settings: RapidFire MS, inhibition of SIK1; read-out: SIK1 RF IC50
# In short: (§1)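 Human SIK1/2/3, 5/0.5/1.5 nM; 12.5 mM HEPES pH 7.0, 10 mM Mg acetate, 0.005% BSA. 30 min cpd pre-inc, + CHK-peptide (10 μM soln) + ATP (100 μM soln), 45 min RT. Formic acid stop; RF-MS phospho ratio; IC50.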
# SIK2 = SIK2 (Homo sapiens, UniProt Q9H0K1); test: Enzymatic activity assay SIK2, RapidFire mass spectrometry (phosphorylation of CHK-peptide); settings: RapidFire MS, inhibition of SIK2; read-out: SIK2 RF IC50
# In short: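 Read-out is the summed phospho-species fraction of CHK-peptide by RapidFire mass spectrometry, normalized between DMSO and 1 μM YKL-05-099. The reaction used 0.5 nM SIK2, 100 μM ATP and 10 μM peptide solutions in HEPES pH 7.0/10 mM magnesium acetate for 45 min at ambient temperature.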
# SIK3 = SIK3 (Homo sapiens, UniProt Q9Y2K2); test: Enzymatic activity assay SIK3, RapidFire mass spectrometry (phosphorylation of CHK-peptide); settings: RapidFire MS, inhibition of SIK3; read-out: SIK3 RF IC50
# In short: as §1
# Chain of SIK1 (P57059 whole entry): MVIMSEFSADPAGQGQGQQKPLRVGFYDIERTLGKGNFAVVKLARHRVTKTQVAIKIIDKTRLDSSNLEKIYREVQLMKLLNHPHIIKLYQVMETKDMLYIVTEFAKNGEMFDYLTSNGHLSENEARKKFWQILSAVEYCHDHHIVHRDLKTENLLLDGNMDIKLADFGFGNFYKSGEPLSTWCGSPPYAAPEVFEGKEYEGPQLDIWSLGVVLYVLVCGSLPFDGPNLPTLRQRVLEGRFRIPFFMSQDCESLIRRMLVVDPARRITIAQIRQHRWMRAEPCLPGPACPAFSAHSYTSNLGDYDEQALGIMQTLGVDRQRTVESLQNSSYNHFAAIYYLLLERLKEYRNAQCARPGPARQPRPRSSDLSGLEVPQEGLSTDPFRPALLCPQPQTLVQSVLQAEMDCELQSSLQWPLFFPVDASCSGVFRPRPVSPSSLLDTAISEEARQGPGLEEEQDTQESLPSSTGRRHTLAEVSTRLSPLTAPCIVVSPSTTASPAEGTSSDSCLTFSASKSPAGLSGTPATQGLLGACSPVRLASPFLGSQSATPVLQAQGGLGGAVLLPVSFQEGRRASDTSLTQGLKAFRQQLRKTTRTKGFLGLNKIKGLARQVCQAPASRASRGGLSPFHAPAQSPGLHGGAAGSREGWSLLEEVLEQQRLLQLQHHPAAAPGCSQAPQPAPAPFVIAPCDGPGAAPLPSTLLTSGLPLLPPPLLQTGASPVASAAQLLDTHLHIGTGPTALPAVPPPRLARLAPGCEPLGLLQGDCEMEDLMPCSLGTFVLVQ
# Chain of SIK2 (Q9H0K1 whole entry): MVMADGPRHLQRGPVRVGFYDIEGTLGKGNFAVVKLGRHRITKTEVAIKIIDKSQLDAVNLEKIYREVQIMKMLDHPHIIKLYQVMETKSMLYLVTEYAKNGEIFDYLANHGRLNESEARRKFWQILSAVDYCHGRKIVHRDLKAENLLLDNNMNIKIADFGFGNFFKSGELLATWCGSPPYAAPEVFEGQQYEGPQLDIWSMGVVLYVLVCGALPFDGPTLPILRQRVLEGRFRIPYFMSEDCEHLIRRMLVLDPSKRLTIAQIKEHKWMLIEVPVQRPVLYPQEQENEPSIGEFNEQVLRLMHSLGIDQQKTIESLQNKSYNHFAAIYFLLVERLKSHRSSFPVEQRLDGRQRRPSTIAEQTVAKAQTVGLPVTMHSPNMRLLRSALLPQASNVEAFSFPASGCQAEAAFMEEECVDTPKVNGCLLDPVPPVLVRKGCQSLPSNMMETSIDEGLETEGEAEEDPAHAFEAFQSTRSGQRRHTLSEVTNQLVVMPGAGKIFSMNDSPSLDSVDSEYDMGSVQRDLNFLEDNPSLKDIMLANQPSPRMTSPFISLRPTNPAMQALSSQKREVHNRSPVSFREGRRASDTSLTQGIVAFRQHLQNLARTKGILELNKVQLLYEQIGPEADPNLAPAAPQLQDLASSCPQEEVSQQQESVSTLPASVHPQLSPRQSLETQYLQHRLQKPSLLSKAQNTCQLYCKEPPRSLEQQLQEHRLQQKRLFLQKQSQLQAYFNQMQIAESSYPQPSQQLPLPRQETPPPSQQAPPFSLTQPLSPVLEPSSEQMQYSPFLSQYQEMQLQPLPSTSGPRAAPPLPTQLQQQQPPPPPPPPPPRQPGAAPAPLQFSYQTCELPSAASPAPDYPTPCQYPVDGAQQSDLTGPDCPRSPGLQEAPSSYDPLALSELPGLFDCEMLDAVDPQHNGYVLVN
# Chain of SIK3 (Q9Y2K2 whole entry): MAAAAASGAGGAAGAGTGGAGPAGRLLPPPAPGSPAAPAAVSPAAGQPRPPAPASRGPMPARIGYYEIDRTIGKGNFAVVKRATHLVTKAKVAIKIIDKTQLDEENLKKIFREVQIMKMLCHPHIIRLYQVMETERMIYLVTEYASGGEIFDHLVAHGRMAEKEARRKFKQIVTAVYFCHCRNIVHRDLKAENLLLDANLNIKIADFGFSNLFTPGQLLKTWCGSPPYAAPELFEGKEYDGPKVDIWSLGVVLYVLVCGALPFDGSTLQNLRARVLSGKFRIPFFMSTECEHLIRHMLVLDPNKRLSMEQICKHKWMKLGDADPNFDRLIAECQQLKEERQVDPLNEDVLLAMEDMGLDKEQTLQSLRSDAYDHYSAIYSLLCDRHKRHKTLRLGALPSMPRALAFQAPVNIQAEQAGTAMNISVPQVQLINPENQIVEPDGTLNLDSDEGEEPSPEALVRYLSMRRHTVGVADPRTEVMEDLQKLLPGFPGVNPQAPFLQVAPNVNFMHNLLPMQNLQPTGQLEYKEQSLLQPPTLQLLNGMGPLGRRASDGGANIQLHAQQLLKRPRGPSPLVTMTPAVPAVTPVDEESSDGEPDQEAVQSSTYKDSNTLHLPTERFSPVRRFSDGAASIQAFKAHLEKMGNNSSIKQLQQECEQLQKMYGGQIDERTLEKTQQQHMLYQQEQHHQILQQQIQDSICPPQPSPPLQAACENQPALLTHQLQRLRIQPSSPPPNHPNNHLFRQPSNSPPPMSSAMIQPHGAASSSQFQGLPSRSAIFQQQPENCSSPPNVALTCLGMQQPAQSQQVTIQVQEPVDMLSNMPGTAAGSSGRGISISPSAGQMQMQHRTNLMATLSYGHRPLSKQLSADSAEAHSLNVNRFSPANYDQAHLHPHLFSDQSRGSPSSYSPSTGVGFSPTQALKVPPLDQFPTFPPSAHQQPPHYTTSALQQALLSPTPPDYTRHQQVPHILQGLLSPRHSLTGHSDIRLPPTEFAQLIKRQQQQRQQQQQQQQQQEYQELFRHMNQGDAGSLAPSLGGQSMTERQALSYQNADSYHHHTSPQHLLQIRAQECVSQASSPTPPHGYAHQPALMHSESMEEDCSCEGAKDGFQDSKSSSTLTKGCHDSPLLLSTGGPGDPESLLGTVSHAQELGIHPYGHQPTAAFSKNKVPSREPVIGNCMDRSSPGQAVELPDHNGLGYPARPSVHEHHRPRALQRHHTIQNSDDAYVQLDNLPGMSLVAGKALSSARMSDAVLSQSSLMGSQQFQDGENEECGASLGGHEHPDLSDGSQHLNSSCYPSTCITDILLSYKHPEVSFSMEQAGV
SMILES,IC50 (SIK1) [nM],IC50 (SIK2) [nM],IC50 (SIK3) [nM]
"Cc1cc(C#N)nn1-c1nc(-n2cnc3cc(NC(=O)C4CC4)ccc32)ccc1C(C)O (stereo not drawn) [Example 327, N-[1-[6-(3-cyano-5-methyl-pyrazol-1-yl)-5-(1-hydroxyethyl)-2-pyridyl]benzimidazol-5-yl]cyclopropanecarboxamide]",40,7.2,4.1
"Cc1cc(C#N)nn1-c1nc(-n2cnc3ccc(NC(=O)C4CC4)cc32)ccc1C(C)O (stereo not drawn) [Example 328, N-[3-[6-(3-cyano-5-methyl-pyrazol-1-yl)-5-(1-hydroxyethyl)-2-pyridyl]benzimidazol-5-yl]cyclopropanecarboxamide]",127,66.1,36.5
"Cc1cc(C#N)nn1-c1nc(-n2cnc3cc(N4CC[C@H]5CNC(=O)[C@H]54)ccc32)ccc1C(C)O (stereo partly drawn) [Example 330, 1-[6-[5-[(3aS,6aS)-6-oxo-2,3,3a,4,5,6a-hexahydropyrrolo[2,3-c]pyrrol-1-yl]benzimidazol-1-yl]-3-(1-hydroxyethyl)-2-pyridyl]-5-methylpyrazole-3-carbonitrile]",113,26,51.3
"Cc1cc(C#N)nn1-c1nc(-n2cnc3cc(Nc4cccn(C)c4=O)ccc32)ccc1C(C)O (stereo not drawn) [Example 333, 1-[3-(1-hydroxyethyl)-6-[5-[(2-keto-1-methyl-3-pyridyl)amino]benzimidazol-1-yl]-2-pyridyl]-5-methyl-pyrazole-3-carbonitrile]",41,25.1,19.4
"COc1nn(C)cc1-c1ccc2c(c1)ncn2-c1ccc(C(C)O)c(-n2nc(C#N)cc2C)n1 (stereo not drawn) [Example 334, 1-[3-(1-hydroxyethyl)-6-[5-(3-methoxy-1-methyl-pyrazol-4-yl)benzimidazol-1-yl]-2-pyridyl]-5-methyl-pyrazole-3-carbonitrile]",3,1.6,3.4
"Cc1cc(C#N)nn1-c1nc(-n2cnc3ccc(-c4ccn(C)c(=O)n4)cc32)ccc1C(C)O (stereo not drawn) [Example 336, 1-[3-(1-hydroxyethyl)-6-[6-(1-methyl-2-oxo-pyrimidin-4-yl)benzimidazol-1-yl]-2-pyridyl]-5-methyl-pyrazole-3-carbonitrile]",29,28.6,139
"Cc1cc(C#N)nn1-c1nc(-n2cnc3cc(-c4ccn(C)c(=O)n4)ccc32)ccc1C(C)O (stereo not drawn) [Example 338, 1-[3-(1-hydroxyethyl)-6-[5-(1-methyl-2-oxo-pyrimidin-4-yl)benzimidazol-1-yl]-2-pyridyl]-5-methyl-pyrazole-3-carbonitrile]",87,27.2,27.6
"Cc1ccc(-c2ccc3ncn(-c4ccc(C(C)O)c(-n5nc(C#N)cc5C)n4)c3c2)nn1 (stereo not drawn) [Example 339, 1-[3-(1-hydroxyethyl)-6-[6-(6-methylpyridazin-3-yl)benzimidazol-1-yl]-2-pyridyl]-5-methyl-pyrazole-3-carbonitrile]",32,29.7,301
"Cc1cc(C#N)nn1-c1nc(-n2cnc3ccc(N4CCC[C@H]4C#N)cc32)ccc1C(C)O (stereo partly drawn) [Example 341, 1-[6-[6-[(2S)-2-cyanopyrrolidin-1-yl]benzimidazol-1-yl]-3-(1-hydroxyethyl)-2-pyridyl]-5-methyl-pyrazole-3-carbonitrile]",14,15.1,124
"Cc1cc(C#N)nn1-c1nc(-n2cnc3cc(N4CCC[C@H]4C#N)ccc32)ccc1C(C)O (stereo partly drawn) [Example 342, 1-[6-[5-[(2S)-2-cyanopyrrolidin-1-yl]benzimidazol-1-yl]-3-(1-hydroxyethyl)-2-pyridyl]-5-methyl-pyrazole-3-carbonitrile]",22,9.5,16.1
"Cc1cc(C#N)nn1-c1nc(-n2cnc3ccc(N4CC[C@H]5CNC(=O)[C@H]54)cc32)ccc1C(C)O (stereo partly drawn) [Example 343, 1-[6-[6-[(3aS,6aS)-6-oxo-2,3,3a,4,5,6a-hexahydropyrrolo[2,3-c]pyrrol-1-yl]benzimidazol-1-yl]-3-(1-hydroxyethyl)-2-pyridyl]-5-methyl-pyrazole-3-carbonitrile]",5,22,63
"Cc1cc(C(=O)N(C)C)c(Nc2cc3ncn(-c4ccc([C@H](C)O)c(-n5nc(C(F)F)cc5C)n4)c3cc2F)nn1 [Example 345, 3-[[1-[6-[3-(difluoromethyl)-5-methyl-pyrazol-1-yl]-5-[(1~{S})-1-hydroxyethyl]-2-pyridyl]-6-fluoro-benzimidazol-5-yl]amino]-~{N},~{N},6-trimethyl-pyridazine-4-carboxamide]",17200,48.9,60.2
"Cc1ccc(Nc2cc3ncn(-c4ccc(C(C)O)c(-c5cc(OC(F)F)ncc5C)n4)c3cc2F)nn1 (stereo not drawn) [Example 346, 1-[2-[2-(difluoromethoxy)-5-methyl-4-pyridyl]-6-[6-fluoro-5-[(6-methylpyridazin-3-yl)amino]benzimidazol-1-yl]-3-pyridyl]ethanol]",133,1,1.4
"Cc1ccc(Nc2cc3ncn(-c4ccc(CO)c(-n5nc(C#N)cc5C)n4)c3cc2F)nn1 [Example 347, 1-[6-[6-fluoro-5-[(6-methylpyridazin-3-yl)amino]benzimidazol-1-yl]-3-(hydroxymethyl)-2-pyridyl]-5-methyl-pyrazole-3-carbonitrile]",1120,6.3,3.9

# The remaining lines, values ahead:
IC50 (SIK1) [nM],IC50 (SIK2) [nM],IC50 (SIK3) [nM],SMILES
2530,48.5,7.1,"Cc1ccc(Nc2ccc3c(c2)ncn3-c2ccc(C(C)O)c(N3CCOC(C(F)F)C3)n2)nn1 (stereo not drawn) [Example 323, 1-[2-[2-(difluoromethyl)morpholin-4-yl]-6-[5-[(6-methylpyridazin-3-yl)amino]benzimidazol-1-yl]-3-pyridyl]ethanol]"
577,10.5,0.8,"Cc1ccc(Nc2ccc3c(c2)ncn3-c2ccc(C(C)O)c(N3CC4CC3C(F)(F)C4)n2)nn1 (stereo not drawn) [Example 324, 1-[2-(6,6-difluoro-2-azabicyclo[2.2.1]heptan-2-yl)-6-[5-[(6-methylpyridazin-3-yl)amino]benzimidazol-1-yl]-3-pyridyl]ethanol]"
1120,21.4,3.4,"Cc1ccc(Nc2ccc3c(c2)ncn3-c2ccc(C(C)O)c(N3CC(C(F)F)C4(CC4)C3)n2)nn1 (stereo not drawn) [Example 325, 1-[2-[7-(difluoromethyl)-5-azaspiro[2.4]heptan-5-yl]-6-[5-[(6-methylpyridazin-3-yl)amino]benzimidazol-1-yl]-3-pyridyl]ethanol]"
1670,67.1,7.8,"Cc1ccc(Nc2ccc3c(c2)ncn3-c2ccc(C(C)O)c(N3CC4CC(F)(F)C4C3)n2)nn1 (stereo not drawn) [Example 326, 1-[2-(6,6-difluoro-3-azabicyclo[3.2.0]heptan-3-yl)-6-[5-[(6-methylpyridazin-3-yl)amino]benzimidazol-1-yl]-3-pyridyl]ethanol]"
1740,59,10,"Cc1ccc(Nc2ccc3c(c2)ncn3-c2ccc(C(C)O)c(N3CCNC4(CC4)C3)n2)nn1 (stereo not drawn) [Example 329, 1-[2-(4,7-diazaspiro[2.5]octan-7-yl)-6-[5-[(6-methylpyridazin-3-yl)amino]benzimidazol-1-yl]-3-pyridyl]ethanol]"
3340,71.5,9.3,"Cc1ccc(Nc2ccc3c(c2)ncn3-c2ccc(C(C)O)c(N3CCNC(C(F)(F)F)C3)n2)nn1 (stereo not drawn) [Example 331, 1-[6-[5-[(6-methylpyridazin-3-yl)amino]benzimidazol-1-yl]-2-[3-(trifluoromethyl)piperazin-1-yl]-3-pyridyl]ethanol]"
316,5.3,2.8,"Cc1ccc(Nc2ccc3c(c2)ncn3-c2ccc(C(C)O)c(-c3cc(C(F)(F)F)ncc3C)n2)nn1 (stereo not drawn) [Example 332, 1-[6-[5-[(6-methylpyridazin-3-yl)amino]benzimidazol-1-yl]-2-[5-methyl-2-(trifluoromethyl)-4-pyridyl]-3-pyridyl]ethanol]"
10,1,0.3,"Cc1ccc(Nc2ccc3c(c2)ncn3-c2ccc(C(C)O)c(-c3cc(C(F)F)ncc3C)n2)nn1 (stereo not drawn) [Example 335, 1-[2-[2-(difluoromethyl)-5-methyl-4-pyridyl]-6-[5-[(6-methlpyridazin-3-yl)amino]benzimidazol-1-yl]-3-pyridyl]ethanol]"
1200,8.3,4.8,"Cc1cc(C(F)F)nn1-c1nc(-n2cnc3cc(Nc4ccc(C5(C)OCCO5)nn4)c(F)cc32)ccc1C(C)O (stereo not drawn) [Example 337, 1-[2-[3-(difluoromethyl)-5-methyl-pyrazol-1-yl]-6-[6-fluoro-5-[[6-(2-methyl-1,3-dioxolan-2-yl)pyridazin-3-yl]amino]benzimidazol-1-yl]-3-pyridyl]ethanol]"
42,20.3,17.9,"Cc1ccc(-c2ccc3c(c2)ncn3-c2ccc(C(C)O)c(-n3nc(C#N)cc3C)n2)nn1 (stereo not drawn) [Example 340, 1-[3-(1-hydroxyethyl)-6-[5-(6-methylpyridazin-3-yl)benzimidazol-1-yl]-2-pyridyl]-5-methyl-pyrazole-3-carbonitrile]"
1570,20.2,3.2,"Cc1ccc(Nc2ccc3c(c2)ncn3-c2ccc(C(C)O)c(-n3nc(C(F)F)nc3C)n2)nn1 (stereo not drawn) [Example 344, 1-[2-[3-(difluoromethyl)-5-methyl-1,2,4-triazol-1-yl]-6-[5-[(6-methylpyridazin-3-yl)amino]benzimidazol-1-yl]-3-pyridyl]ethanol]"
